Reference: patent US11072608B2, “Pesticidally active heterocyclic derivatives with sulphur containing substituents” (SYNGENTA PARTICIPATIONS AG, priority 2014, dated 2021)

Assays:
[1] = system: Plutella xylostella (diamond back moth); experiment: Example B3: activity against Plutella xylostella, artificial diet; format: in vivo; details: 120 h, application rate of 200 ppm, L2 larvae, 5 days after infestation, read-out: effect in at least one of the two categories (mortality or growth inhibition)
Protocol: Example B3: Activity Against Plutella xylostella (Diamond Back Moth)
24-well microtiter plates with artificial diet were treated with aqueous test solutions prepared from 10,000 ppm DMSO stock solutions by pipetting. After drying, the plates were infested with L2 larvae (10 to 15 per well). The samples were assessed for mortality and growth inhibition in comparison to untreated samples 5 days after infestation. The following compound gave an effect of at least 80% in at least one of the two categories (mortality or growth inhibition) at an application rate of 200 ppm: P1, P4, P5, P6, P8, P9, P10, P11, P12 and P13.

[2] = system: Spodoptera littoralis (Egyptian cotton leaf worm); experiment: Example B1: activity against Spodoptera littoralis, cotton leaf disc spray; format: in vivo; details: foliar, 72 h, application rate of 200 ppm, cotton leaf discs, L1 larvae, 3 days after infestation, read-out: control in at least one of the three categories (mortality, anti-feedancy or growth inhibition)
Protocol: Example B1: Activity Against Spodoptera littoralis (Egyptian Cotton Leaf Worm)
Cotton leaf discs were placed on agar in 24-well microtiter plates and sprayed with aqueous test solutions prepared from 10,000 ppm DMSO stock solutions. After drying the leaf discs were infested with five L1 larvae. The samples were assessed for mortality, anti-feedant effect, and growth inhibition in comparison to untreated samples 3 days after infestation. Control of Spodoptera littoralis by a test sample is when at least one of mortality, anti-feedant effect, and growth inhibition is higher than the untreated sample. The following compound gave an effect of at least 80% control in at least one of the three categories (mortality, anti-feedancy or growth inhibition) at an application rate of 200 ppm: P1, P4, P5, P8, P9, P10, P12 and P13.

[3] = system: Diabrotica balteata (corn root worm); experiment: Example B4: activity against Diabrotica balteata, maize sprouts spray; format: in vivo; details: 96 h, application rate of 200 ppm, L2 larvae, 4 days after infestation, read-out: effect in at least one of the two categories (mortality or growth inhibition)
Protocol: Example B4: Activity Against Diabrotica balteata (Corn Root Worm)
Maize sprouts, placed on an agar layer in 24-well microtiter plates were treated with aqueous test solutions prepared from 10,000 ppm DMSO stock solutions by spraying. After drying, the plates were infested with L2 larvae (6 to 10 per well). The samples were assessed for mortality and growth inhibition in comparison to untreated samples 4 days after infestation. The following compounds gave an effect of at least 80% in at least one of the two categories (mortality or growth inhibition) at an application rate of 200 ppm: P1, P4, P5, P6, P8, P9, P10, P11, P12 and P13.

[4] = system: Bemisia tabaci (cotton white fly); experiment: Example B7: activity against Bemisia tabaci, cotton leaf disc spray; format: in vivo; details: foliar, 144 h, application rate of 200 ppm, cotton leaf discs, adult white flies, 6 days after incubation
Protocol: Example B7: Activity Against Bemisia tabaci (Cotton White Fly)
Cotton leaf discs were placed on agar in 24-well microtiter plates and sprayed with aqueous test solutions prepared from 10,000 ppm DMSO stock solutions. After drying the leaf discs were infested with adult white flies. The samples were checked for mortality 6 days after incubation.

[5] = system: Spodoptera littoralis (Egyptian cotton leaf worm); experiment: Example B2: activity against Spodoptera littoralis, systemic via lettuce on agar; format: in vivo; details: 144 h, application rate of 12.5 ppm, Spodoptera eggs, 6 days after infestation, read-out: control in at least one of the three categories (mortality, anti-feedancy or growth inhibition)
Source text: Example B2: Activity Against Spodoptera Littoralis (Egyptian Cotton Leaf Worm)
Test compounds were applied by pipette from 10,000 ppm DMSO stock solutions into 24-well plates and mixed with agar. Lettuce seeds were placed on the agar and the multi well plate was closed by another plate which contains also agar. After 7 days the roots have absorbed the compound and the lettuce has grown into the lid plate. The lettuce leafs were now cut off into the lid plate. Spodoptera eggs were pipetted through a plastic stencil on a humid gel blotting paper and the plate closed with it. The samples were assessed for mortality, anti-feedant effect and growth inhibition in comparison to untreated samples 6 days after infestation. The following compound gave an effect of at least 80% control in at least one of the three categories (mortality, anti-feedancy or growth inhibition) at an application rate of 12.5 ppm: P1, P4, P9, P12 and P13.

[6] = system: Frankliniella occidentalis (western flower thrips); experiment: Example B10: activity against Frankliniella occidentalis, sunflower leaf disc spray; format: in vivo; details: foliar, 168 h, application rate of 200 ppm, sunflower leaf discs, mixed ages, 7 days after infestation
Protocol: Example B10: Activity Against Frankliniella occidentalis (Western Flower Thrips)
(§1) Sunflower leaf discs were placed on agar in 24-well microtiter plates and sprayed with aqueous test solutions prepared from 10,000 DMSO stock solutions. After drying the leaf discs were infested with a Frankliniella population of mixed ages. The samples were assessed for mortality 7 days after infestation.

[7] = system: Myzus persicae (green peach aphid); experiment: Example B5: activity against Myzus persicae, sunflower leaf disc spray; format: in vivo; details: foliar, 144 h, application rate of 200 ppm, sunflower leaf discs, mixed ages, 6 days after infestation
Protocol: Example B5: Activity Against Myzus persicae (Green Peach Aphid)
Sunflower leaf discs were placed on agar in a 24-well microtiter plate and sprayed with aqueous test solutions prepared from 10,000 ppm DMSO stock solutions. After drying, the leaf discs were infested with an aphid population of mixed ages. The samples were assessed for mortality 6 days after infestation.

[8] = system: Euschistus heros (neotropical brown stink bug); experiment: Example B8: activity against Euschistus heros, soybean leaf spray; format: in vivo; details: 120 h, application rate of 200 ppm, N-2 nymphs, 5 days after infestation
Protocol: Example B8: Activity Against Euschistus heros (Neotropical Brown Stink Bug)
Soybean leaf on agar in 24-well microtiter plates were sprayed with aqueous test solutions prepared from 10,000 ppm DMSO stock solutions. After drying the leaf were infested with N-2 nymphs. The samples were assessed for mortality 5 days after infestation.

[9] = system: Thrips tabaci (onion thrips); experiment: Example B11: activity against Thrips tabaci, sunflower leaf disc spray; format: in vivo; details: foliar, 144 h, application rate of 200 ppm, sunflower leaf discs, mixed ages, 6 days after infestation
Protocol: Example B11: Activity Against Thrips tabaci (Onion Thrips)
as §1, with “10,000 ppm” for “10,000”, “Thrips” for “Frankliniella”, “6” for “7”

[10] = system: Myzus persicae (green peach aphid); experiment: Example B9: activity against Myzus persicae, roots of pea seedlings in test solution; format: in vivo; details: 144 h, test rate of 24 ppm, 6 days
Protocol: Example B9: Activity Against Myzus persicae (Green Peach Aphid)
Roots of pea seedlings infested with an aphid population of mixed ages were placed directly into aqueous test solutions prepared from 10,000 DMSO stock solutions. The samples were assessed for mortality 6 days after placing seedlings into test solutions.

| melting point [°C] | Compound | percent effect (mortality or growth inhibition) at 200 ppm [1] [%] | percent control (mortality, anti-feedancy or growth inhibition) at 200 ppm [2] [%] | percent effect (mortality or growth inhibition) at 200 ppm [3] [%] | mortality at 200 ppm [4] [%] | control at 12.5 ppm [5] [%] | mortality at 200 ppm [6] [%] | mortality at 200 ppm [7] [%] | mortality at 200 ppm [8] [%] | mortality at 200 ppm [9] [%] | mortality at 24 ppm [10] [%] |
| --- | --- | --- | --- | --- | --- | --- | --- | --- | --- | --- | --- |
| 130 to 132 | CCSc1cc(C2CCCC2)cnc1-c1nc2cc(C(F)(F)F)cnc2n1C [Compound P2, 2-(5-cyclopentyl-3-ethylsulfanyl-2-pyridyl)-3-methyl-6-(trifluoromethyl) imidazo[4,5-b]pyridine] |  |  |  |  |  |  |  |  |  |  |
| 148 to 150 | CCSc1cc(C2CCCCC2)cnc1-c1nc2cc(C(F)(F)F)cnc2n1C [Compound P3, 2-(5-cyclohexyl-3-ethylsulfanyl-2-pyridyl)-3-methyl-6-(trifluoromethyl) imidazo[4,5-b]pyridine] |  |  |  |  |  |  |  |  |  |  |
|  | CCS(=O)(=O)c1cc(C2CC2)cnc1-c1nc2cc(C(F)(F)F)cnc2n1C [Compound P4, 2-(5-cyclopropyl-3-ethylsulfonyl-2-pyridyl)-3-methyl-6-(trifluoromethyl) imidazo[4,5-b]pyridine] | ≥ 80 | ≥ 80 | ≥ 80 | ≥ 80 | ≥ 80 | ≥ 80 | ≥ 80 | ≥ 80 |  |  |
|  | CCS(=O)(=O)c1cc(C2CCCC2)cnc1-c1nc2cc(C(F)(F)F)cnc2n1C [Compound P5] | ≥ 80 | ≥ 80 | ≥ 80 |  |  |  | ≥ 80 | ≥ 80 |  |  |
|  | CCS(=O)(=O)c1cc(C2CCCCC2)cnc1-c1nc2cc(C(F)(F)F)cnc2n1C [Compound P6] | ≥ 80 |  | ≥ 80 | ≥ 80 |  |  | ≥ 80 | ≥ 80 |  |  |
| 136 to 138 | CCSc1cc(C2CCC2)cnc1-c1nc2cc(C(F)(F)F)cnc2n1C [Compound P7] |  |  |  |  |  |  |  |  |  |  |
|  | CCS(=O)(=O)c1cc(C2CCC2)cnc1-c1nc2cc(C(F)(F)F)cnc2n1C [Compound P8] | ≥ 80 | ≥ 80 | ≥ 80 | ≥ 80 |  |  | ≥ 80 | ≥ 80 |  |  |
|  | CCS(=O)(=O)c1cc(C2(C#N)CC2)cnc1-c1nc2cc(C(F)(F)F)cnc2n1C [Compound P9, 1-[5-ethylsulfonyl-6-[3-methyl-6-(trifluoromethyl)imidazo[4,5-b]pyridin-2-yl]-3-pyridyl]cyclopropanecarbonitrile] | ≥ 80 | ≥ 80 | ≥ 80 | ≥ 80 | ≥ 80 | ≥ 80 | ≥ 80 | ≥ 80 | ≥ 80 | ≥ 80 |
|  | CCS(=O)(=O)c1cc(C2(C#N)CCC2)cnc1-c1nc2cc(C(F)(F)F)cnc2n1C [Compound P10] | ≥ 80 | ≥ 80 | ≥ 80 | ≥ 80 |  |  | ≥ 80 | ≥ 80 |  |  |
|  | CCS(=O)(=O)c1cc(C2(C(N)=O)CC2)cnc1-c1nc2cc(C(F)(F)F)cnc2n1C [Compound P11, 1-[5-ethylsulfonyl-6-[3-methyl-6-(trifluoromethyl)imidazo[4,5-b]pyridin-2-yl]-3-pyridyl]cyclopropanecarboxamide] | ≥ 80 |  | ≥ 80 | ≥ 80 |  | ≥ 80 | ≥ 80 | ≥ 80 |  | ≥ 80 |
|  | CCS(=O)(=O)c1cc(C2(C(=O)O)CC2)cnc1-c1nc2cc(C(F)(F)F)cnc2n1C [Compound P12, 1-[5-ethylsulfonyl-6-[3-methyl-6-(trifluoromethyl)imidazo[4,5-b]pyridin-2-yl]-3-pyridyl]cyclopropanecarboxylic acid] | ≥ 80 | ≥ 80 | ≥ 80 | ≥ 80 | ≥ 80 |  | ≥ 80 | ≥ 80 |  |  |
|  | CCS(=O)(=O)c1cc(C2(C#N)CC2)cnc1-c1nc2cc(SC(F)(F)F)cnc2n1C [Compound P13, 1-[5-ethylsulfonyl-6-[3-methyl-6-(trifluoro-methylsulfanyl)imidazo[4,5-b]pyridin-2-yl]-3-pyridyl]cyclopropanecarbonitrile] | ≥ 80 | ≥ 80 | ≥ 80 | ≥ 80 | ≥ 80 | ≥ 80 | ≥ 80 | ≥ 80 | ≥ 80 |  |
| 163 to 165 | CCS(=O)(=O)c1ccc(C2CC2)nc1-c1nc2cc(C(F)(F)F)cnc2n1C [Compound P14, 2-(6-cyclopropyl-3-ethylsulfonyl-2-pyridyl)-3-methyl-6-(trifluoromethyl)imidazo[4,5-b]pyridine] |  |  |  |  |  |  |  |  |  |  |
